This note sets out measurements from patent US10166253B2, “Positively charged co-polymers for use as antimicrobial agents” (priority 2014, dated 2019).

Test [1] has as its system multi-resistant P. aeruginosa strain (CCUG59626). The test can be described thus: Flow cytometry viability assay on multiresistant strain. The test is classed as cell-based, Pseudomonas aeruginosa. As to conditions: CCUG59626, ~10^8 cells/ml. On the procedure:
A multi-resistant P. aeruginosa strain (CCUG59626) (˜10^8 cells/ml) was incubated with varying concentrations of GA and LL-37. […] All experiments were performed as four replicates.

Another test deals with P. aeruginosa (PAO1). The test can be described thus: Antimicrobial activity in human serum and plasma (flow cytometry, PI/Syto9). It counts as cell-based, Pseudomonas aeruginosa. Particulars: P. aeruginosa PAO1 ~10^8 cells/ml. The text has this: It has been reported that the antimicrobial activity of antimicrobial peptides are inhibited by their binding to different factors in human plasma (Wang, Y., et al., Apolipoprotein A-I binds and inhibits the human antibacterial/cytotoxic peptide LL-37. J Biol Chem, 1998. 273(50): p. 33115-8), serum and is influenced by pH and ion composition (Johansson, J., et al., Conformation-dependent antibacterial activity of the naturally occurring human peptide LL-37. J Biol Chem, 1998. 273(6): p. 3718-24). To investigate the potential of GA for systemic application, bacterial isolates of P. aeruginosa (PAO1, ˜10^8 cells/ml) were incubated with increasing concentrations of GA and compared to LL-37. Bacterial survival and enumeration was evaluated by a flow cytometry bead standard and stained with propidium iodide and Syto9 following procedures as previously described above in the antimicrobial susceptibility testing by flow cytometry-based assay. […] All experiments were performed as four replicates.

A further test concerns S. aureus (Wood 46). The test can be described thus: Antimicrobial susceptibility testing (MIC) by the oCelloScope system. As to conditions: CAMHBT broth, SESA growth curves. It counts as cell-based, Staphylococcus aureus. On the procedure: (§1) E. coli (strain NCTC 10418) and S. aureus (Wood 46, NCTC 7121) were grown overnight in Sensititre® cation-adjusted Mueller-Hinton broth with TES (CAMHBT, TREK Diagnostic System). Bacterial cell suspensions were adjusted to 0.5 McFarland standard using a nephelometer. Subsequently, bacteria were diluted in CAMHBT according to the recommended final inoculum size for broth dilution (5×10^5 colony-forming units (CFU) ml^−1) (Wiegand, I., K. Hilpert, and R. E. Hancock, Agar and broth dilution methods to determine the minimal inhibitory concentration (MIC) of antimicrobial substances. Nat Protoc, 2008. 3(2): p. 163-75) and analyzed in Nunc Edge 96-well plates by the oCelloScope system.
(§2) The oCelloScope is a digital time-lapse microscopy technology that scans through a fluid sample generating series of images as described in 2013 by Fredborg et al. (Fredborg, M., et al., Real-time optical antimicrobial susceptibility testing. J Clin Microbiol, 2013. 51(7): p. 2047-53). As a result of the tilted imaging plane, the images recorded by the oCelloScope system constitute a parallelepipedum that forms the image stack. […] Growth kinetics was determined by image stack processing based on contrast based Segmentation and Extraction of Surface Area (SESA). […]
(§3) The effect of GA on bacterial growth was further evaluated using, an optical screening system (oCelloScope) (FIG. 6). […]

A further test relates to E. coli (NCTC 10418). The test is described as above. The test is classed as cell-based, Escherichia coli. Particulars: CAMHBT broth, SESA growth curves. On the procedure:
as §1, §2, §3

For Glatiramer acetate [GA], the “susceptibility of multiresistant strain (in words)” value in test [1] is listed as “highly susceptible”. Also, the “antimicrobial activity in human plasma and serum (in words)” value with P. aeruginosa (PAO1) is reported as “retains antimicrobial activity”. Besides, the MIC against S. aureus (Wood 46) turned out to be 500 µg/mL; in the test on E. coli (NCTC 10418), 31 µg/mL.
